Laboratory results from paper PMC3598705, “Evaluation of Toxicity and Biodegradability of Cholinium Amino Acids Ionic Liquids” (PLoS ONE, 2013).
Read-outs that look alike come from different tables or passages of the source.

Legend:
[1] = test system: S. enteritidis ATCC 14128; assay: Antimicrobial activity, tube dilution method; type: cell-based, Salmonella enteritidis; conditions: four repeated experiments; for MIC: 24 h at 37 °C; for MBC: kills 99.9% or more
Experimental: (§1) Antimicrobial activity was measured via the tube dilution method as described previously. Briefly, E. coli, S. aureus, S. enteritidis and L. monocytogenes were cultured in Mueller-Hinton broth for 24 h at 37 °C. A microorganism suspension of 10^6 cfu mL^−1 (cfu, colony forming units) was prepared from each culture. IL solutions (31.3–1500 mM) were prepared with sterilized Mueller-Hinton broth, and then were sterilized by filtration (0.45 µm pore-diameter membrane). The various permutations of microorganism suspension (50 µL) and IL solution (50 µL) were mixed in 96-well microtiter plate. Growth of the microorganisms was determined visually after incubation for 24 h at 37 °C. Controls were conducted under the same conditions: negative controls without microorganisms and positive controls without ILs. The lowest concentration at which there was no visible growth (turbidity) was taken as the minimal inhibitory concentration (MIC). Samples of 20 µL from each well were spread onto Mueller-Hinton agar medium with inactivates (0.3% lecithin, 3% polysorbate 80 and 0.1% L-cysteine) and incubated for 48 h at 37 °C. The lowest concentration of the IL that killed 99.9% or more of the test bacterium was taken as the minimum biocidal concentration (MBC).

E. coli ATCC 8739 = assay: Antimicrobial activity, tube dilution method; type: cell-based, Escherichia coli; conditions: four repeated experiments
Experimental: as §1

[2] = test system: L. monocytogenes ATCC 19115; assay: Antimicrobial activity, tube dilution method; type: cell-based, Listeria monocytogenes; conditions: four repeated experiments
Experimental: as §1

S. aureus ATCC 29213 = assay: Antimicrobial activity, tube dilution method; type: cell-based, Staphylococcus aureus; conditions: four repeated experiments
Experimental: as §1

[3] = biological target: T1, AChE type VI-S (from the electric eel) (Electrophorus electricus, UniProt O42275); assay: AChE inhibition assay (colorimetric, DTNB reduction); type: biochemical; conditions: DTNB 0.5 mM, AChE 0.05 U mL^−1, acetylthiocholine iodide 0.5 mM, 37 °C, phosphate buffer pH 8.0; mean ± SD; read-out: EC50±SD (toxicity toward AChE)
T1 construct: purchased Sigma–Aldrich, USA type VI-S (catalogue number not given)
Experimental: A colorimetric assay based on reduction of DTNB was used to measure AChE inhibition as described previously, [24], in the presence of a phosphate buffer system in order to eliminate the effects of pH changes on enzyme activity. Briefly, IL solutions were prepared with 0.2 M phosphate buffer (pH 8.0) in 96-well microtiter plates. The enzyme (0.2 U mL^−1, plus 0.25 mg mL^−1 bovine serum albumin in the same phosphate buffer), and DTNB (2 mM, plus 0.185 mg mL^−1 NaHCO3 in the same phosphate buffer) were added to each well and kept at 37 °C for 5 min, and then the reaction was initiated by adding acetylthiocholine iodide (2 mM in the same phosphate buffer). In the experimental reactions, the final concentrations of DTNB, acetylthiocholine iodide and AChE were 0.5 mM, 0.5 mM and 0.05 U mL^−1, respectively. Except where stated otherwise, the concentration range used to calculate EC50 of the [Ch][AA] ILs was 0–50 mM. However, for strongly alkaline [Ch][AA] ILs such as [Ch][Lys], the maximum concentration used was 20 mM in order to avoid changes in enzyme activity due to pH changes that would be caused if the IL exceeded the buffering capacity of the phosphate buffer. Acidic amino acid-derived ILs ([Ch][Asp] and [Ch][Glu]) were used up to 80 mM. The control compounds cholinium chloride ([Ch][Cl]), [Bmim][BF4] and acetone were used at concentration ranges of 0–80 mM, 0–50 mM and 10 mM–2.5 M, respectively. Control experiments without enzyme were carried out under otherwise identical conditions. Reduction of DTNB was monitored at 405 nm and at 10 second intervals in a microplate reader (Wallac 1420 VICTOR3, PerkinElmer, Singapore) over a period of 5 min. Enzyme activity was expressed as ΔOD min^−1 obtained via linear regression analysis. All assays were performed at least in triplicate.
All data were analyzed by One-Way analysis of variance using SPSS 11.5 (SPSS Inc., USA). EC50 values are presented as mean ± standard deviation (SD) from at least three repeats, and confidence intervals (α = 0.05) of EC50 are also presented. The One-Way ANOVA was used to judge if the difference between the different ILs groups was significant. When the p value was<0.05, the difference was considered to be significant.

T1 sequence (O42275 24-633): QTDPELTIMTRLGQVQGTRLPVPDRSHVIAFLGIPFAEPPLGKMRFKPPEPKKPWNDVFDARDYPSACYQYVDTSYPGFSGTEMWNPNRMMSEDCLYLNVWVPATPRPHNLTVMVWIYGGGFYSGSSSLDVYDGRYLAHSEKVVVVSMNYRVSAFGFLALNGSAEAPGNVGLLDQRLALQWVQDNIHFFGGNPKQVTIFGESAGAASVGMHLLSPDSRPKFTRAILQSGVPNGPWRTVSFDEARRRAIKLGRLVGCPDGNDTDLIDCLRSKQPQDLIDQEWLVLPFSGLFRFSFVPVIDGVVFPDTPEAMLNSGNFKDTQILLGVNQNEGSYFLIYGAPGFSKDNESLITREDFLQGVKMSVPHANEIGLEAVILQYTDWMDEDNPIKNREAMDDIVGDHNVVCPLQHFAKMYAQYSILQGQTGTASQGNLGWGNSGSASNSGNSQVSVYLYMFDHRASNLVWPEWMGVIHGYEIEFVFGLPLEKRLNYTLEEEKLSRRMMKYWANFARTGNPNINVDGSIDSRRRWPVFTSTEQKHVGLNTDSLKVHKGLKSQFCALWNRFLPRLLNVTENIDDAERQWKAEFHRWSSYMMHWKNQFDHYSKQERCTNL

| SMILES | MIC [1] | MBC [1] | MIC (E. coli ATCC 8739; 24 h at 37 °C) | MBC (E. coli ATCC 8739; kills 99.9% or more) | MIC ([2]; 24 h at 37 °C) | MBC ([2]; kills 99.9% or more) | MIC (S. aureus ATCC 29213; 24 h at 37 °C) | MBC (S. aureus ATCC 29213; kills 99.9% or more) | EC50 [3] | also measured |
| --- | --- | --- | --- | --- | --- | --- | --- | --- | --- | --- |
| C[N+](C)(C)CCO.O=C([O-])[C@@H]1CCCN1 [[Ch][Pro]] | 46.9 mM | 62.5 mM | 46.9 mM | 62.5 mM | 62.5 mM | 93.8 mM | 93.8 mM | 125 mM | – | – |
| NC(=O)C[C@H](N)C(=O)O [[Ch][Asn]] | – | – | – | – | – | – | – | – | 3.94 ± 0.05 mM | – |
| C[N+](C)(C)CCO.NC(=O)C[C@H](N)C(=O)[O-] [[Ch][Asn]] | 93.8 mM | 125 mM | 93.8 mM | 125 mM | 250 mM | 250 mM | 188 mM | 250 mM | – | – |
| C[C@H](N)C(=O)O [[Ch][Ala]] | – | – | – | – | – | – | – | – | 3.33 ± 0.1 mM | – |
| C[N+](C)(C)CCO.NCC(=O)[O-] [[Ch][Gly]] | 93.8 mM | 125 mM | 125 mM | 250 mM | 250 mM | 500 mM | 250 mM | 500 mM | – | – |
| C[N+](C)(C)CCO.NC(=O)CC[C@H](N)C(=O)[O-] [[Ch][Gln]] | 93.8 mM | 125 mM | 125 mM | 188 mM | 188 mM | 250 mM | 125 mM | 188 mM | – | – |
| NCC(=O)O [[Ch][Gly]] | – | – | – | – | – | – | – | – | 3.83 ± 0.17 mM | – |
| NC(=O)CC[C@H](N)C(=O)O [[Ch][Gln]] | – | – | – | – | – | – | – | – | 3.51 ± 0.16 mM | – |
| C[N+](C)(C)CCO.N[C@@H](Cc1cnc[nH]1)C(=O)[O-] [[Ch][His]] | 46.9 mM | 62.5 mM | 46.9 mM | 62.5 mM | 93.8 mM | 125 mM | 93.8 mM | 125 mM | – | – |
| C[C@@H](O)[C@H](N)C(=O)[O-].C[N+](C)(C)CCO [[Ch][Thr]] | 46.9 mM | 62.5 mM | 31.3 mM | 62.5 mM | 93.8 mM | 125 mM | 125 mM | 250 mM | – | – |
| C[N+](C)(C)CCO.[Cl-] [[Ch][Cl], cholinium chloride, reference compound] | >750 mM | >750 mM | >750 mM | >750 mM | >750 mM | >750 mM | >750 mM | >750 mM | 3.16 ± 0.09 mM | – |
| CCCCn1cc[n+](C)c1 [[Bmim][BF4], 1-Butyl-3-methylimidazolium tetrafluoroborate, reference compound] | – | – | – | – | – | – | – | – | 0.33 ± 0.01 mM | MIC ([1]; Salmonella enterica, read-out: MIC): 2.3 mM; MBC ([1]; Salmonella enterica, read-out: MBC): 2.3 mM; MIC (E. coli ATCC 8739; Escherichia coli, ATCC8739, 24 h at 37 °C, read-out: MIC): 2.3 mM; MBC (E. coli ATCC 8739; Escherichia coli, ATCC8739, kills 99.9% or more, read-out: MBC): 4.6 mM; MIC ([2]; Listeria monocytogenes, ATCC19115, 24 h at 37 °C, read-out: MIC): 2.3 mM; MBC ([2]; Listeria monocytogenes, ATCC19115, kills 99.9% or more, read-out: MBC): 4.6 mM; MIC (S. aureus ATCC 29213; Staphylococcus aureus, ATCC29213, 24 h at 37 °C, read-out: MIC): 2.3 mM; MBC (S. aureus ATCC 29213; Staphylococcus aureus, ATCC29213, kills 99.9% or more, read-out: MBC): 4.6 mM |
| O=C(O)[C@@H]1CCCN1 [[Ch][Pro]] | – | – | – | – | – | – | – | – | 3.37 ± 0.16 mM | – |
| C[N+](C)(C)CCO.N[C@@H](CO)C(=O)[O-] [[Ch][Ser]] | 46.9 mM | 62.5 mM | 31.3 mM | 62.5 mM | 93.8 mM | 125 mM | 125 mM | 250 mM | – | – |
| CC(C)C[C@H](N)C(=O)[O-].C[N+](C)(C)CCO [[Ch][Leu]] | 46.9 mM | 62.5 mM | 46.9 mM | 62.5 mM | 46.9 mM | 62.5 mM | 93.8 mM | 125 mM | 3.36 ± 0.05 mM | – |
| CSCC[C@H](N)C(=O)[O-].C[N+](C)(C)CCO [[Ch][Met]] | 31.3 mM | 62.5 mM | 31.3 mM | 62.5 mM | 125 mM | 250 mM | 125 mM | 250 mM | – | – |
| C[N+](C)(C)CCO.NCCCC[C@H](N)C(=O)[O-] [[Ch][Lys]] | 31.3 mM | – | 31.3 mM | 46.9 mM | 62.5 mM | 93.8 mM | 62.5 mM | 93.8 mM | 3.48 ± 0.13 mM | – |
| C[C@@H](O)[C@H](N)C(=O)O [[Ch][Thr]] | – | – | – | – | – | – | – | – | 3.45 ± 0.15 mM | – |
| N[C@@H](Cc1cnc[nH]1)C(=O)O [[Ch][His]] | – | – | – | – | – | – | – | – | 3.63 ± 0.04 mM | – |
| CC(=O)[O-].C[N+](C)(C)CCO [[Ch][AcO], Cholinium acetate, reference compound] | 750 mM | 750 mM | 500 mM | 750 mM | 500 mM | 750 mM | 500 mM | 750 mM | – | – |
| N[C@@H](CO)C(=O)O [[Ch][Ser]] | – | – | – | – | – | – | – | – | 3.56 ± 0.15 mM | – |
| C[C@H](N)C(=O)[O-].C[N+](C)(C)CCO [[Ch][Ala]] | 62.5 mM | 93.8 mM | 46.9 mM | 93.8 mM | 188 mM | 250 mM | 188 mM | 250 mM | – | – |
| CSCC[C@H](N)C(=O)O [[Ch][Met]] | – | – | – | – | – | – | – | – | 3.13 ± 0.14 mM | – |
